Where two headings read alike, the source gives them in different places.
What was measured:
cathepsin L = cathepsin L (Homo sapiens, UniProt P07711); assay: FRET enzymatic assay; format: biochemical
MERS-CoV M^pro [1] = target: T1, MERS-CoV M^pro (Human betacoronavirus 2c EMC/2012, UniProt K0BWD0); format: biochemical; conditions: read-out: KI
MERS-CoV M^pro [2] = target: T1, MERS-CoV M^pro; assay: biochemical

Sequence of cathepsin L (P07711 114-288): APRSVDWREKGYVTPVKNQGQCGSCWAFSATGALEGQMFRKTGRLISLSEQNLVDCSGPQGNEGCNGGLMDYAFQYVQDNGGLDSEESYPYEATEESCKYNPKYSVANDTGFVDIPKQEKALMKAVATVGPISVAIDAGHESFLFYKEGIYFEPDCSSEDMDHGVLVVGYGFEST
Sequence of cathepsin L (P07711 292-333): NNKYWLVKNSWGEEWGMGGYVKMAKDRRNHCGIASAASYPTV
T1 sequence (K0BWD0 3248-3553 limits assumed): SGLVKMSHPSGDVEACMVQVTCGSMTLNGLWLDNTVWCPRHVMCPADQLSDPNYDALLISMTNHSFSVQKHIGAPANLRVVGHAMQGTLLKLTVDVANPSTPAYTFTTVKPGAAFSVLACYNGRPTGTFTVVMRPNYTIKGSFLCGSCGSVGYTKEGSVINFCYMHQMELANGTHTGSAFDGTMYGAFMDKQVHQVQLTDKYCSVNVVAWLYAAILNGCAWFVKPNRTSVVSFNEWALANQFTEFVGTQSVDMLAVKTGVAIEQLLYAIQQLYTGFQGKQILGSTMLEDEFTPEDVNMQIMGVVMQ

`CC(C)C[C@H](NC(=O)[C@@H]1O[C@H]1C(=O)O)C(=O)NCCCCN=C(N)N` [E-64, reference compound] gave an IC50 (cathepsin L) of 5.45 nM.

With `CC(C)(C)NC(=O)N[C@H](C(=O)N1C[C@H]2[C@@H]([C@H]1C(=O)NC(CC1CCC1)C(=O)C(N)=O)C2(C)C)C(C)(C)C` (some centres unmarked) [boceprevir] the IC50 (cathepsin L) was 153 nM and the KI (inactivation) (MERS-CoV M^pro [1]) was 1650 ± 120 nM.

`CCCC(NC(=O)[C@H](CC(C)C)NC(=O)OCc1ccccc1)C(=O)C(=O)NCc1ccccn1` (some centres unmarked) [calpain inhibitor XII] was tested, and the IC50 (cathepsin L; individual value only in figure) was “calpain inhibitors II and XII and GC-376 had potent inhibition against cathepsin L” and the Ki (MERS-CoV M^pro [2]) was 1320 ± 70 nM.

Reference: PMC7944397 (ACS infectious diseases, 2021)
